Test results from patent US9896487B2, “Amyloidosis-inhibiting polypeptides and their use” (UNIVERSITY OF WASHINGTON THROUGH ITS CENTER FOR …, priority 2013, dated 2018).
Entries after “also recorded” stand apart in the source; their conditions may differ. Where a SMILES comes first, the peptide text is derived from it. [ ]: non-standard residue; d: D form.

How the values were obtained:
TTR = biological target: T1, TTR (Homo sapiens, UniProt P02766); assay: Immobilized designs on agarose beads, binding of TTR from solution (dot blot); conditions: immobilized design; for binding of pre-incubated, toxic oligomer-containing TTR: TTR pre-incubated at low pH for 24 hrs
T1 construct: purchased Lee Biosolutions, St. Louis Mo; 496-11

[1] = Solubility and solution behaviour of the designs; conditions: for solubility: aqueous solution-phase experiments
Aβ = biological target: T2, Aβ (Homo sapiens, UniProt P05067); assay: Immobilized designs on agarose beads, binding of Aβ from solution (dot blot); conditions: immobilized design; for binding of pre-aggregated, toxic Aβ: Aβ pre-aggregated for 6 hrs
T2 construct: Aβ (1-42) (AMYD-002; CPC Scientific, Sunnyvale Calif.); purchased CPC Scientific, Sunnyvale Calif; AMYD-002

[2] = system: human neuroblastoma cell line SH-SY5Y
Procedure: The toxicity of aggregates was tested against the human neuroblastoma cell line SH-SY5Y in an MTT cell viability assay. The human neuroblastoma cell line SH-SY5Y (CRL-226; American Type Culture Collection) was grown in 75 cm^2 flasks in 1:1 DMEM/F12 (CellGro) supplemented with 10% FBS and 50 units/mL penicillin/50 μg/mL streptomycin (complete media), and incubated at 37° C. in humidified 5% CO2 environment. Cells were routinely passaged when they reached 90% confluence by addition of trypsin (Gibco) and replated at a ratio of 1:10 in complete media. Cells were plated to a density of 25,000 cells/well in a 96-well plate (100 μL/well) and allowed to attach overnight. The cell assay was performed as described by Reixach et al. (41).

Aβ (1-42) = biological target: T3, Aβ (1-42) (Homo sapiens, UniProt P05067); assay: Aβ fibrillization assay (Thioflavin T fluorescence); format: biochemical; conditions: for time of aggregation at which the inhibitory effect is exerted: 10:1 excess, 37° C., ThT; for inhibition of Aβ fibril formation: co-incubated in 10:1 excess (100 μM peptide, 10 μM Aβ), pH 7.4, 37° C., measured at 22 hours; for inhibition of aggregation of pre-aggregated, toxic Aβ: designs added to Aβ pre-aggregated for 6 hrs, versus aggregation in the absence of inhibitor
T3 construct: Aβ (1-42) (AMYD-002; CPC Scientific, Sunnyvale Calif.); purchased CPC Scientific, Sunnyvale Calif; AMYD-002
Procedure: Similarly, the designs were co-incubated (in 10:1 excess) with Aβ at pH 7.4 and followed fibril formation with ThT fluorescence changes upon binding at 37° C. (FIG. 2c). As observed for TTR, both α1 and α3 inhibited aggregation. Again α1 was more efficient, inhibiting approximately 87% of fibril formation compared with 66% for α3, when measured after the reaction stabilized at 22 hours. […] The 37° C. studies are reported here, though, for comparison with TTR, which aggregates very slowly at 25° C.
Aβ (1-42) (AMYD-002; CPC Scientific, Sunnyvale Calif.) was stored as 2 mg/mL stock in hexafluoroisopropanol (HFIP) at −18° C. Prior to use, the stock solution was thawed, an aliquot taken and the HFIP was removed under a gentle stream of air. A 1 mg/mL stock solution of Aβ was made in 5 mM NaOH and sonicated for 5-10 minutes. The stock was filtered through a 0.22 μm cellulose filter (Costar Spin-X; Corning Inc, NY). The concentration of stock Aβ was determined by first diluting the stock 1:50 in 5 mM NaOH then taking the absorbance at 220 nm (ε220=50,000 cm^−1 M^−1). Aliquots of the NaOH stock were placed in separate wells of a 96-well black-walled fluorescence plate (Nunc) and immediately diluted in PBS (11 mM phosphate) containing 20 μM Thioflavin T (ThT) to give 150 μL of 10 μM Aβ at pH 7.5. Peptide inhibitors were added directly to 10 μM Aβ samples from concentrated aqueous stocks. Covered plates were incubated at 37° C. and were periodically removed for fluorescence measurements. ThT fluorescence was measured at λex=450 nm and λem=480 nm using a Tecan Safire2 plate reader.
(§1) The “control” designs were tested as general inhibitors against the Amyloid β 1-42 peptide (Aβ) (panel A), the islet amylin polypeptide (IAPP, or amylin, which is implicated in type 2 diabetes) (panel B), and transthyretin (TTR) (panel C) amyloidosis (FIG. 6). […] As described in Example 1, a Thioflavin T (ThT) fluorescence assay was used to monitor Aβ and IAPP aggregation. A Congo Red dye-binding assay was used to monitor TTR fibrillization. For inhibition against Aβ, peptides were co-incubated at 4-fold excess of Aβ at RT in neutral pH buffer containing ThT. Note that the results for α1 differ somewhat from what are included in Example 1 because the assay conditions were altered slightly to slow the process down to favor oligomerization of Aβ (rather than fibril elongation) by lowering the temperature to 25° C. […] For inhibition against IAPP, peptides were co-incubated at 8-fold excess of IAPP at 37° C. in neutral pH buffer containing 20 μM ThT. For inhibition against TTR, peptides were co-incubated at 10-fold excess of monomeric TTR.

transthyretin (TTR) = biological target: T4, transthyretin (TTR) (Homo sapiens, UniProt P02766); assay: TTR fibrillization assay (Congo red binding); format: biochemical; conditions: for inhibition of the remaining TTR aggregation: peptide added to 24-hour pre-incubated, toxic TTR, versus aggregation in the absence of inhibitor
T4 construct: purchased Lee Biosolutions, St. Louis Mo; 496-11
Procedure: Aliqouts of transthyretin (TTR) (496-11; Lee Biosolutions, St. Louis Mo.) were made from a 1 mg/mL solution 20 mM ammonium carbonate, pH 8. Aliquots were lyophilized and stored at −18° C. Prior to use, TTR was dissolved to 80 μM (monomer) in acetate buffer (50 mM potassium acetate, 100 mM potassium chloride pH 4.5) and sonicated for 10 minutes. The stock solution was centrifuged before use. Peptide designs were added to stock TTR to a final TTR concentration of 40 μM (monomer) in acetate buffer (pH 4.5) in 500 μL microcentrifuge tubes, which were incubated at 37° C. Periodically, samples were collected from the TTR:peptide mixture by briefly centrifuging, and then carefully pipetting the solution up and down prior to withdrawing a 10 μL sample and diluting it in 190 μL of 10 μM Congo red in an individual well of a 96-well assay plate. Each measurement was performed in triplicate. Absorbance measurements were taken at 477 and 540 nm. Relative Congo red binding was determined using the method of Klunk et al. using the relationship: rCb=(Abs540/25,295)−(Abs477/46,306) (40). All datapoints were normalized to the value recorded for TTR alone pH 4.5 at 48 hrs.
as §1

[3] = system: Aβ, IAPP and TTR amyloidosis / toxic oligomer; assay: Inhibitory activity summary: inhibition of aggregation and/or binding of toxic oligomer; format: biochemical
Procedure: In addition, FIG. 5 contains ‘control’ designs aimed at reverse engineering the α1 design, which is presented in more detail in Example 3. […] These designs are both linear and cyclic peptides designed to be hairpins.
The “control” designs were tested as general inhibitors against the Amyloid β 1-42 peptide (Aβ) (panel A), the islet amylin polypeptide (IAPP, or amylin, which is implicated in type 2 diabetes) (panel B), and transthyretin (TTR) (panel C) amyloidosis (FIG. 6). […] As described in Example 1, a Thioflavin T (ThT) fluorescence assay was used to monitor Aβ and IAPP aggregation. A Congo Red dye-binding assay was used to monitor TTR fibrillization. For inhibition against Aβ, peptides were co-incubated at 4-fold excess of Aβ at RT in neutral pH buffer containing ThT. […] For inhibition against IAPP, peptides were co-incubated at 8-fold excess of IAPP at 37° C. in neutral pH buffer containing 20 μM ThT. For inhibition against TTR, peptides were co-incubated at 10-fold excess of monomeric TTR.
The data in FIG. 6 were normalized to ThT fluorescence of the negative (uninhibited) control (black squares). Inhibition traces are ordered vertically according to sequence identity to α1 (see Table 1). Sigmoidal fits to data are included. Controls are identical throughout a single panel, and traces for inhibition samples are colored while the uninhibited aggregation profiles are in black.

T3 sequence (P05067 672-713 limits assumed): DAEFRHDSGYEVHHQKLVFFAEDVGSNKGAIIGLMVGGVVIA
T2 sequence (P05067 672-713 limits assumed): as above

| Compound | binding of pre-incubated, toxic oligomer-containing TTR (TTR) | solubility [1] | binding of pre-aggregated, toxic Aβ (Aβ) | viability of treated cells [2] | inhibition of Aβ aggregation at 4-fold excess (Aβ (1-42); 4-fold excess of peptide, 25° C. (RT), neutral pH buffer with ThT, listed as α1) | time of aggregation at which the inhibitory effect is exerted (Aβ (1-42)) | inhibition of Aβ fibril formation (Aβ (1-42)) | inhibition of aggregation of pre-aggregated, toxic Aβ (Aβ (1-42)) | inhibition of the remaining TTR aggregation (transthyretin (TTR)) | percentage inhibition of TTR aggregation (transthyretin (TTR); peptide co-incubated in excess 20:1 (800 μM) with 40 μM TTR monomer, pH 4.5, 37° C., after 48 hours, relative to TTR alone at low pH) | binding of native, tetrameric TTR (TTR) | binding of pre-incubated, toxic oligomer-containing TTR (TTR; listed as α1) | binding of pre-aggregated, toxic Aβ (Aβ; listed as α1) | binding of fresh, monomeric Aβ (Aβ; fresh (0 h) Aβ) | Inhibits Aggregation and/or binds oligomer? [3] | inhibition at 800 µM (transthyretin (TTR); peptide co-incubated in excess 20:1 (800 μM) with 40 μM TTR monomer, pH 4.5, 37° C., after 48 hours, relative to TTR alone at low pH, read-out: percentage inhibition of TTR aggregation) | association state in solution ([1]; NMR conditions: very high sample concentrations, 50 mM potassium phosphate, 100 mM KCl pH 5.8) |
| --- | --- | --- | --- | --- | --- | --- | --- | --- | --- | --- | --- | --- | --- | --- | --- | --- | --- |
| CSCC[C@H](NC(=O)[C@@H](CCCCN)NC(=O)[C@H](CS)NC(=O)[C@@H](CC(N)=O)NC(=O)[C@H](CCSC)NC(=O)[C@H](NC(=O)[C@H](Cc1c[nH]c2ccccc12)NC(=O)CNC(=O)[C@H](Cc1ccc(O)cc1)NC(=O)[C@H](Cc1ccc(O)cc1)NC(=O)[C@H](CCC(=O)O)NC(=O)[C@H](CC(N)=O)NC(=O)[C@H](CCSC)NC(=O)[C@@H](Cc1c[nH]c2ccccc12)NC(=O)[C@H](Cc1ccccc1)NC(=O)[C@@H](Cc1ccc(O)cc1)NC(=O)[C@H](CC(N)=O)NC(=O)[C@@H](CCSC)NC(=O)[C@H](CCC(=O)O)NC(=O)CNC(=O)[C@H](CCCNC(=N)N)NC(C)=O)[C@H](C)O)C(=O)NCC(=O)N[C@@H](CCCNC(=N)N)C(N)=O [α2] (Ac-RGE[dM]N[dY]F[dW]MNEYYGW[dT]M[dN]C[dK]MGR-NH2) | to a greater extent than the rc and β controls; also recorded: more strongly bound | sparingly soluble; also recorded: not soluble enough for NMR | bound pre-aggregated, toxic Aβ preferentially | – | – | – | – | – | – | – | – | – | – | – | – | – | – |
| Aβ: β-amyloid peptide 1-42 (AMYD-002; CPC Scientific) | – | – | – | less than 50% | – | – | – | – | – | – | – | – | – | – | – | – | – |
| Ac-RGEmNiSwMNEYSGWtMnLkMGR-NH2 [peptide #1] | – | – | – | – | essentially completely abolishes aggregation; also recorded: quenches Aβ aggregation | approximately 6 hrs | approximately 87% | 97% | 81% | 72% | did not bind | to a greater extent than the rc and β controls; also recorded: more strongly bound | preferentially bound the pre-aggregated, toxic form of Aβ | did not bind | demonstrate activity and yes | – | – |
| CSCC[C@@H]1NC(=O)[C@@H]([C@H](C)O)NC(=O)[C@H](Cc2c[nH]c3ccccc23)NC(=O)[C@@H](C)NC(=O)[C@H](C)NC(=O)[C@H](C)NC(=O)[C@H](C)NC(=O)[C@H](CC(N)=O)NC(=O)[C@H]([C@@H](C)O)NC(=O)[C@@H](Cc2c[nH]c3ccccc23)NC(=O)[C@H](CO)NC(=O)[C@@H](CCCCN)NC(=O)[C@H](CCC(N)=O)NC(=O)[C@@H](CCC(N)=O)NC(=O)[C@H](CCCCN)NC(=O)[C@H](CC(N)=O)NC(=O)[C@H]2CCCN2C(=O)[C@H](CCC(=O)O)NC(=O)[C@@H](CCCCN)NC(=O)[C@H](CC(C)C)NC(=O)[C@@H](CCC(N)=O)NC1=O [α3] (cyclo([dQ]Q[dK]S[dW]TNAAA[dA]W[dT]M[dQ]L[dK]E[dP]NK)) | to a greater extent than the rc and β controls; also recorded: more strongly bound | soluble | bound pre-aggregated, toxic Aβ preferentially | – | – | approximately 6 hrs | 66% | 96% | 77% | – | – | – | – | – | – | 56% | well-behaved monomers |
